In patent publication US12178786B2, “Combination of cellular immunotherapy” (CRAGE medical Co., Limited, priority 2018, dated 2024):

Legend:
IL2 = experiment: Effect of sorafenib on cytokine secretion of CAR T cells (Cytometric Bead Array); assay type: cell-based, human; conditions: general statement of the applicant's finding
Experimental: As for the specific steps, referring to the steps in the manual of The Cytometric Bead Array System (BD, USA), which are briefly described as follows:
b) The microspheres (cytometric bead array system, BD, USA) capturing the human cytokine IL2, IFN-γ, and TNF-α are taken to mix in a suspension.
c) The mixture of the microspheres for capturing and detection antibody are added into the standard or supernatant sample, incubating at room temperature in the dark; after the incubation is completed, it is washed with washing buffer, then centrifuging, and discarding the supernatant.
The secretion levels of IL-2, IFN-γ and TNF-α are detected by flow cytometry, and the results are shown in FIGS. 8A, 8B, and 8C, wherein ns means p>0.05; *p<0.05; **p<0.01; ***p<0.001, one-way ANOVA.

[1] = compound II administrated alone in the clinical trial; cited from earlier work

SMILES: CNC(=O)c1cc(Oc2ccc(NC(=O)Nc3ccc(Cl)c(C(F)(F)F)c3)cc2)ccn1 [sorafenib]
- secretion of the cytokine IL2 by CAR T cells (IL2): promote CAR T cells to secrete the cytokine IL2
- approximate concentration in the patient's body [1]: ~6.5 µM
